From patent US7776572B2, “Method for reducing loss of enzyme activity during storage” (Corning Incorporated, priority 1996, dated 2010)
Marks after values point to notes of the source that are not given here.

Tests used:
[1] = test system: BSA protein (Bovine Serum Albumin, Fraction V); test: BSA binding to coated polystyrene 24-well plates at different pH, colloidal gold stain; conditions: for Absorbance (550 nm) pH = 9.2: BSA 10 μg/ml in 0.10 M NaHCO3 buffer; for Absorbance (550 nm) pH = 7.4: BSA 10 μg/ml in 0.10 M PBS; for Absorbance (550 nm) pH = 4.6: BSA 10 μg/ml in 0.10 M acetate buffer
Description: Polystyrene plates having 24 wells (Corning Costar #9447) were coated as described in Materials and Methods.
BSA protein (Bovine Serum Albumin, Fraction V, Sigma) was prepared at 10 μg/ml in 0.10 M acetate buffer (pH=4.6), in 0.10 M PBS (pH=7.4), and in 0.10 M NaHCO3 buffer (pH=9.2). Wells of each coated plate, along with uncoated controls, were aliquoted 0.50 ml each of the protein solutions. The samples were run in triplicate.
The plates were placed on a rocker table for 30 minutes at 23° C. The protein solutions were then emptied from the plates, and the wells were rinsed three times with dl H2O. Thereafter, 1.0 ml of colloidal gold stain was added to each well (see Materials and Methods). The plates were placed on a rocker table overnight, rinsed three times with dI H2O, and air dried. Absorbance at 550 nm was then read using the Cambridge Technologies Plate Reader.

IgG = test: Coating durability using water washes, IgG binding by colloidal gold
Description: Polystyrene plates having 24 wells (Corning Costar #9447) were coated with these surfactants as described in Materials and Methods. Durability was tested by adding dI H2O to the wells of a test plate (3.0 mls/well), following which the plate was placed on a rocker table. […] The protein solution was incubated with the plate on a rocker table for 30 minutes at 23° C., following which the plate was H2O rinse 3× (3 mls each time). The colloidal gold staining procedure described above was used to reveal bound protein. The staining comprised an overnight incubation on a rocker table at 23° C., a dI H2O rinse, drying at room temperature, and reading at 550 nm.

bound protein = test: Colloidal gold staining of bound protein after MDCK culture in media containing 5% FBS, visual; conditions: colloidal gold after cell culture, visual observation
Description: (§1) The procedures used were as follows. Polystyrene 24-well plates were coated with the non-ionic surfactants listed in Table 5 in accordance with the procedures described in Materials and Methods. Uncoated plates were used as a control. For comparison, plates with a covalently attached acrylamide coating (Corning Costar Catalog #2500) and with a stearic acid coating were also tested. The stearic acid coating was applied in the same manner as the non-ionic surfactants again using a 0.1% (w/v) solution.
(§2) The plates were gamma sterilized at 1.5 Mrad and then inoculated with 5.6×10^4 MDCK […] per well in 1 ml of complete media containing 5% FBS (Fetal Bovine Serum). Incubation was carried out at 37° C. in a 5% CO2 atmosphere for two days. The plates were fixed and stained, and cell attachment was noted. Following this, the wells were stained using the colloidal gold technique to detect bound protein. Only visual observations were made.

MDCK cells [2] = test: MDCK cell attachment to coated polystyrene 24-well plates; format: cell-based; conditions: coated PS 24-well, gamma sterilized, media with 5% FBS, two days, visual
Description: as §1, §2
Experiments were also performed with cells suspended in serum. The cells used in these experiments were MDCK cells. The surfactants used were the same as used in Table 5. Again, reduced binding of the cells to surfaces treated with a non-ionic surfactant was observed.

Horse IgG = test: Protein binding by colloidal gold staining, coated medium binding polystyrene plates; conditions: coated medium binding PS; IgG 10 μg/ml, pH 9.4
Description: Except where indicated, the non-ionic surfactants were applied to the hydrophobic surfaces being tested as a 0.1% (weight/volume) solution in isopropanol. A sufficient amount of coating solution was used to cover the surface being testing with a thin layer of the solution (e.g., 25 μl of the solution per well for a standard 24-well plate). In some cases, the solution was applied to surface by spraying; in others, it was poured onto the surface (into the well). Except where indicated, coated samples were either dried at 70° C. for 30 minutes in an air circulated oven or dried at room temperature overnight to evaporate the isopropanol.
Protein binding was determined in some examples using a colloidal gold straining procedure. In accordance with this procedure, colloidal gold becomes electrostatically attached to bound protein and is detected by measuring absorbance at 550 nanometers. Bio-Rad Laboratories' Colloidal Gold Total Protein Stain was used for this purpose, with absorbance being measured with a Cambridge Technologies Plate Reader (No. 7520).
The surfactants were coated onto medium binding polystyrene plates (Corning Costar No. 2587) as described in Material and Methods.
The plates were incubated with IgG as follows: 0.1 ml of Horse IgG (Pierce Labs) at a working concentration of 10 μg/ml in 0.10M NaHCO3 buffer (pH9.4) were added to each well, incubated 30 minutes on a rocker table, and rinsed with dI H2O. The plates were gold stained overnight (0.3 ml/well), rinsed in dI H2O, air dried, and absorbance was measured at 550 nm.

HRP-Goat A'Mouse IgG = test: Enzymatic determination of protein binding to coated medium binding polystyrene plate; conditions: coated medium binding PS; versus uncoated high binding polystyrene plate; absorbance 405 nm
Description: The surfactants were coated onto a medium binding polystyrene plate (Corning Costar No. 2587) as described in Material and Methods. A medium binding polystyrene plate (Corning Costar No. 2587) and a high binding polystyrene plate (Corning Costar No. 2581) were used as controls.
(a) HRP-Goat A'Mouse IgG: Kirkegaard & Perry Laboratories, Inc. Catalog No. 074-1806. Stock solution: 0.5 mg/ml; working concentration: 0.04 μg/ml. The working concentration was obtained by adding 11 μl of the stock solution per 25 mls of PBS pH 7.4 to produce a work stock (WS), and then diluting 1:6 (i.e., 10 mls WS+50 mls PBS pH 7.4).
(1) 100 μl-well of HRP-Goat A'Mouse IgG at a concentration of 0.04 μg/ml were added to the test wells and incubated for 1 hour at room temperature.
(2) The wells were then washed 5 times with the 1M wash solution. Each wash include a 5 minute soak followed by decanting.
(3) 100 μl/well of substrate (30 mls ABTS+30 mls H2O2) were added to the test wells and incubated for 15 minutes at room temperature in the dark.
(4) 100 μl/well of stopping solution (1% SDS) were added to the test wells.
(5) The plates were then shaken and read at 405 nm.
(6) Reduction in binding was determined by comparing the absorbance measured in step (5) with the absorbance measured for a high binding polystyrene plate which had not been treated with a non-ionic surfactant but otherwise subjected to steps (1) to (5).

MDCK cells [3] = test: Cytotoxicity of extracts of coated plates; format: cell-based; conditions: media extract of coated plates (37° C., 48 hours), MDCK 72 hours, Gram Crystal Violet
Description: Cytotoxicity experiments were performed using MDCK cells. The non-ionic surfactants tested were Pluronic L-121, L-122, and P-123; Span 80 and 85; and Brij 30, 72 and 93. These molecules were coated onto 24-well plates (Corning Costar #9447) from 0.1% (w/v) in isopropanol. Untreated polystyrene and normal tissue culture treated polystyrene (Corning Costar #25820) 24-well plates were used as controls. All plates were incubated at 37° C. for 48 hours with 2 ml/well of complete DMEM media containing 10% Fetal Bovine Serum (FBS). This incubation was performed in order to extract any potentially toxic compounds from the coated surface into the cell growth serum. The FBS solutions were then transferred to tissue culture treated polystyrene and each well was inoculated with ≈2×10^4 cells/well of MDCK cells, and then incubated at 37° C. for 72 hours in a 5% CO2 atmosphere. Cells were then stained with Gram Crystal Violet.

rat = conditions: cited from earlier work
Fetal Bovine Serum (FBS) = test: Polymer blends molded into petri dishes, FBS protein binding by colloidal gold
[4] = test system: ^125I-IgG (goat anti-mouse); test: Radiometric determination of IgG binding to surfactant-coated polystyrene microtiter wells
Description: The hydrophobic surfaces used were flat bottom microtiter plates composed of high binding polystyrene (Corning Costar No. 2581) and medium binding polystyrene (Corning Costar No. 2587). Testing was performed with and without gamma radiation sterilization using cobalt 60 (1.5 Mrad).
The surfactants were applied to the test plates as described in Materials and Methods, followed by sterilization where indicated.
Levels of protein binding were determined using a radiolabeled protein, namely, ^125I-IgG (goat anti-mouse) purchased from DuPont/NEN. Unlabeled IgG in sodium carbonate buffer pH 9.2 was spiked with ^125I-IgG so that the final concentration of labeled IgG and cold IgG in the test solution was 10 μg/mL.
Aliquots of 0.1 milliliters of the protein solution were placed in quadruplicate in the wells of 8-well strips removed from the test microtiter plates. The wells were incubated overnight at 4° C. with shaking. The supernatants were removed from the wells, followed by three washes with 0.2 mL of PBS. The wells were then dried and individually counted to determine “total” IgG binding. After determining “total” binding, the wells were incubated for two hours in 0.2 mL of PBS-Tween (0.05%) at room temperature with shaking. The supernatants were removed from the wells followed by three washes with 0.2 mL of PBS. The wells were dried and individually counted to determine “tight” IgG binding.
Untreated high binding and medium binding plates were used as controls. A comparative experiment was also performed in which a BSA protein coating was used in place of a surfactant coating. The BSA was preabsorbed onto the walls of the wells and then washed to remove excess material. Testing was then performed using the radiolabeled IgG solution as described above.
Radiolabel measurements were performed in a double blind study at BioMolecular Assays (Woburn, Mass.). IgG binding values per microwell were converted to ng/cm^2 values using a surface area of 0.94 cm^2 for a 0.1 mL volume.

BSA = test: Polymer blends molded into petri dishes, BSA binding by colloidal gold
Description: Low binding non-ionic surfactant molecules were blended at 5% (except as noted in Table 13) into a base polymer using a twin screw extruder, then injection molded into the shape of 35 mm petri dishes. Proteins tested were BSA and Fetal Bovine Serum (FBS). Protein binding was determined using a colloidal gold staining procedure as described above. In the case of the polypropylene and EVA blends, a silver enhancer was used (Sigma Chem. Co., St, Louis, Mo., Kit #SE-100).

[5] = blended at 5% into polypropylene, silver enhancer

SORBITOL MONO-PALMITATE
Absorbance (550 nm) pH = 9.2 [1]: 0.00
Absorbance (550 nm) pH = 7.4 [1]: 0.00
Absorbance (550 nm) pH = 4.6 [1]: 0.00
Absorbance (550 nm) Initial (IgG; coated polystyrene, no water wash): 0.00
Absorbance (550 nm) 1 Time 1 hr 23° C. (IgG; dI H2O wash 1 time, 1 hr, 23° C.): 0.00
Absorbance (550 nm) 1 Time 24 hr 23° C. (IgG; dI H2O wash 1 time, 24 hr, 23° C.): 0.00
Absorbance (550 nm) 1 Time 24 hr 37° C. (IgG; dI H2O wash 1 time, 24 hr, 37° C.): 0.00
Absorbance (550 nm) 1 Time 24 hr 70° C. (IgG; dI H2O wash 1 time, 24 hr, 70° C.): 0.00
Absorbance (550 nm) 6 Times 30 min each 23° C. (IgG; dI H2O wash 6 times, 30 min each, 23° C.): 0.02-0.06
Visual Color Upon Protein Staining (bound protein): None
MDCK Attachment (MDCK cells [2]): None
IgG Protein Binding Absorbance (550 nm) (Horse IgG): 0.00
% Reduction in Protein Binding (HRP-Goat A'Mouse IgG): 88.9* %

CCCCCCCCCCCCCCCCCCOCCOCCO [PEO(2) STEARYL ETHER]
Absorbance (550 nm) pH = 9.2 [1]: 0.00
Absorbance (550 nm) pH = 7.4 [1]: 0.00
Absorbance (550 nm) pH = 4.6 [1]: 0.00
cell growth and morphology (MDCK cells [3]): confluent cell growth with normal cell morphology
LD50 (rat): >25 grams/Kg
Bound Protein Absorbance (550 nm) FBS (Fetal Bovine Serum (FBS); [5]): 0.000
Bound Protein Absorbance (550 nm) FBS (Fetal Bovine Serum (FBS); blended at 5% into polystyrene): 0.009
Total IgG binding, Non-Sterilized ([4]; coated polystyrene wells, not sterilized, after three PBS washes): 83 ng/cm^2
Total IgG binding, Sterilized ([4]; gamma sterilized (1.5 Mrad), after three PBS washes): 36 ng/cm^2
Tight IgG binding, Sterilized ([4]; gamma sterilized (1.5 Mrad), after two hours in PBS-Tween (0.05%)): 17 ng/cm^2
Tight IgG binding, Non-Sterilized ([4]; not sterilized, after two hours in PBS-Tween (0.05%)): 28 ng/cm^2
BSA or FBS protein binding (BSA; blend in polypropylene or EVA): no detectable
Bound Protein Absorbance (550 nm) BSA (BSA; [5]): 0.000
Bound Protein Absorbance (550 nm) BSA (BSA; blended at 5% into polystyrene): 0.008
IgG Protein Binding Absorbance (550 nm) (Horse IgG): 0.00
% Reduction in Protein Binding (HRP-Goat A'Mouse IgG): 97.9%
